Key:
Assay in all cases: relative viability (nuclei count vs DMSO), 5 days (fraction); higher = more cells survive
Midostaurin + Decitabine = compound: CO[C@@H]1[C@H](N(C)C(=O)c2ccccc2)C[C@H]2O[C@]1(C)n1c3ccccc3c3c4c(c5c6ccccc6n2c5c31)C(=O)NC4 [Midostaurin] + Nc1ncn([C@H]2C[C@H](O)[C@@H](CO)O2)c(=O)n1 [Decitabine] (partner 2 µM)
Procedure, shortened: (§1)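 Each reported value is a median over duplicate plates. It expresses relative viability: treated-well nuclei count divided by vehicle-well nuclei count. Lung cancer cell lines in 1536-well plates were dosed by pin tool a day after seeding, alone with one drug or with a fixed anchor-drug dose plus five library-drug doses (not always all listed) in √10 steps, and nuclei were counted after 5 days.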

Midostaurin + Phenformin = compound: CO[C@@H]1[C@H](N(C)C(=O)c2ccccc2)C[C@H]2O[C@]1(C)n1c3ccccc3c3c4c(c5c6ccccc6n2c5c31)C(=O)NC4 [Midostaurin] + N=C(N)NC(=N)NCCc1ccccc1 [Phenformin] (partner 250 µM)
Procedure, shortened: as §1

Midostaurin + Bortezomib = compound: CO[C@@H]1[C@H](N(C)C(=O)c2ccccc2)C[C@H]2O[C@]1(C)n1c3ccccc3c3c4c(c5c6ccccc6n2c5c31)C(=O)NC4 [Midostaurin] + CC(C)C[C@H](NC(=O)[C@H](Cc1ccccc1)NC(=O)c1cnccn1)B(O)O [Bortezomib] (partner 0.002 µM)
Procedure, shortened: as §1

[1] = compound: COc1cc(-c2nn([C@H]3CC[C@H](N4CCN(C(C)=O)CC4)CC3)c3ncnc(N)c23)ccc1NC(=O)c1cc2ccccc2n1C + Cc1nc(Nc2ncc(C(=O)Nc3c(C)cccc3Cl)s2)cc(N2CCN(CCO)CC2)n1 [Dasatinib] (partner 0.075 µM)
Procedure, shortened: as §1

Midostaurin + Tozasertib = compound: CO[C@@H]1[C@H](N(C)C(=O)c2ccccc2)C[C@H]2O[C@]1(C)n1c3ccccc3c3c4c(c5c6ccccc6n2c5c31)C(=O)NC4 [Midostaurin] + Cc1cc(Nc2cc(N3CCN(C)CC3)nc(Sc3ccc(NC(=O)C4CC4)cc3)n2)n[nH]1 [Tozasertib] (partner 0.1 µM)
Procedure, shortened: as §1

| Cell Line | relative viability (Midostaurin + Decitabine; first compound 0.01 µM) | relative viability (Midostaurin + Decitabine; first compound 0.03162 µM) | relative viability (Midostaurin + Decitabine; first compound 0.1 µM) | relative viability (Midostaurin + Decitabine; first compound 0.3162 µM) | relative viability (Midostaurin + Phenformin; first compound 0.01 µM) | relative viability (Midostaurin + Phenformin; first compound 0.03162 µM) | relative viability (Midostaurin + Phenformin; first compound 0.1 µM) | relative viability (Midostaurin + Phenformin; first compound 0.3162 µM) | relative viability (Midostaurin + Bortezomib; first compound 0.01 µM) | relative viability (Midostaurin + Bortezomib; first compound 0.03162 µM) | relative viability (Midostaurin + Bortezomib; first compound 0.1 µM) | relative viability (Midostaurin + Bortezomib; first compound 0.3162 µM) | relative viability ([1]; first compound 0.0128 µM) | relative viability ([1]; first compound 0.04048 µM) | relative viability ([1]; first compound 0.128 µM) | relative viability ([1]; first compound 1.28 µM) | relative viability (Midostaurin + Tozasertib; first compound 0.01 µM) | relative viability (Midostaurin + Tozasertib; first compound 0.03162 µM) | relative viability (Midostaurin + Tozasertib; first compound 0.1 µM) | relative viability (Midostaurin + Tozasertib; first compound 0.3162 µM) |
| --- | --- | --- | --- | --- | --- | --- | --- | --- | --- | --- | --- | --- | --- | --- | --- | --- | --- | --- | --- | --- |
| A549 | 0.255 | 0.221 | 0.216 | 0.222 | 0.139 | 0.126 | 0.166 | 0.209 | – | – | – | – | – | – | – | – | – | – | – | – |
| CAL-12T | – | – | – | – | 0.666 | 0.527 | 0.438 | 0.275 | 1 | 0.922 | 0.88 | 0.796 | 0.418 | 0.252 | 0.487 | 0.436 | 0.345 | 0.27 | 0.266 | 0.215 |
| Calu-6 | – | – | – | – | – | – | – | – | 0.934 | 0.973 | 0.96 | 0.791 | – | – | – | – | – | – | – | – |
| EBC-1 | – | – | – | – | – | – | – | – | 0.756 | 0.485 | 0.502 | 0.427 | – | – | – | – | – | – | – | – |
| HCC-44 | 0.899 | 0.972 | 0.989 | 0.997 | 0.157 | 0.251 | 0.167 | 0.201 | 0.84 | 0.881 | 0.796 | 0.762 | – | – | – | – | – | 1.04 | 0.819 | 0.778 |
| IA-LM | – | – | – | – | – | – | – | – | 0.85 | – | 0.946 | 0.783 | – | – | – | – | – | – | – | – |
| LK-2 | 0.262 | 0.272 | 0.405 | 0.299 | 0.425 | 0.571 | 0.492 | 0.374 | – | – | – | – | 0.312 | 0.264 | 0.326 | 0.417 | 0.175 | 0.147 | 0.18 | 0.173 |
| NCI-H358 | 0.228 | 0.236 | 0.231 | 0.25 | 0.404 | 0.331 | 0.371 | 0.353 | – | – | – | – | 0.188 | 0.138 | 0.151 | 0.163 | 0.103 | 0.101 | 0.0978 | 0.112 |
| NCI-H522 | 0.584 | 0.638 | 0.822 | 0.525 | 0.596 | 0.706 | 0.655 | 0.753 | – | – | – | – | 0.794 | 0.843 | 0.809 | 0.897 | 0.557 | 0.607 | 0.629 | 0.621 |
| NCI-H1299 | – | – | – | – | – | – | – | – | 1.03 | 0.987 | 0.95 | 1.01 | – | – | – | – | – | – | – | – |
| NCI-H1395 | 0.681 | 0.81 | 0.712 | 0.702 | 0.459 | 0.459 | 0.488 | 0.523 | – | – | – | – | 0.414 | 0.464 | 0.465 | 0.449 | 0.726 | 0.785 | 0.708 | 0.769 |
| NCI-H1563 | – | – | – | – | 0.693 | 0.672 | 0.697 | 0.682 | 0.888 | 0.937 | 0.761 | 0.888 | 0.481 | 0.484 | 0.532 | 0.488 | – | – | – | – |
| NCI-H1623 | – | – | – | – | 0.588 | 0.626 | 0.56 | 0.634 | – | – | – | – | 0.526 | 0.497 | 0.557 | 0.572 | 0.445 | 0.481 | 0.433 | 0.446 |

Source: the supplement of paper PMC10307832
